Assay [1] concerns IL10 secretion, OCI-LY3 cells. Description: Human IL10 Mesoscale assay (OCI-LY3). To be noted: 24 h incubation. The assay is classed as cell-based.
The test system of assay [2] is IL6 secretion, OCI-LY3 cells. The assay can be described thus: Human IL6 Mesoscale assay (OCI-LY3). The assay is classed as cell-based. To be noted: 24 h incubation.
In assay [3] the target is full-length MALT1 protein (Strep-MALT1(1-824)-His) (Homo sapiens (Human), UniProt Q9UDY8). The assay can be described thus: MALT1 Biochemical Protease Assay. To be noted: read-out: MALT1_Biochemical activity (Ac-LRSR-amc) IC50; 10 nM FL MALT1, 200 μM Ac-LRSR-AMC, 50 min pre-incubation, 4 h at RT. An excerpt: From this an ICso value (inhibitory concentration causing 50% inhibition) can be obtained.

Structures are written as SMILES.

In general, IC50 refers to the concentration that gives 50% inhibition.

Chain of full-length MALT1 protein (Strep-MALT1(1-824)-His) (Q9UDY8 whole entry): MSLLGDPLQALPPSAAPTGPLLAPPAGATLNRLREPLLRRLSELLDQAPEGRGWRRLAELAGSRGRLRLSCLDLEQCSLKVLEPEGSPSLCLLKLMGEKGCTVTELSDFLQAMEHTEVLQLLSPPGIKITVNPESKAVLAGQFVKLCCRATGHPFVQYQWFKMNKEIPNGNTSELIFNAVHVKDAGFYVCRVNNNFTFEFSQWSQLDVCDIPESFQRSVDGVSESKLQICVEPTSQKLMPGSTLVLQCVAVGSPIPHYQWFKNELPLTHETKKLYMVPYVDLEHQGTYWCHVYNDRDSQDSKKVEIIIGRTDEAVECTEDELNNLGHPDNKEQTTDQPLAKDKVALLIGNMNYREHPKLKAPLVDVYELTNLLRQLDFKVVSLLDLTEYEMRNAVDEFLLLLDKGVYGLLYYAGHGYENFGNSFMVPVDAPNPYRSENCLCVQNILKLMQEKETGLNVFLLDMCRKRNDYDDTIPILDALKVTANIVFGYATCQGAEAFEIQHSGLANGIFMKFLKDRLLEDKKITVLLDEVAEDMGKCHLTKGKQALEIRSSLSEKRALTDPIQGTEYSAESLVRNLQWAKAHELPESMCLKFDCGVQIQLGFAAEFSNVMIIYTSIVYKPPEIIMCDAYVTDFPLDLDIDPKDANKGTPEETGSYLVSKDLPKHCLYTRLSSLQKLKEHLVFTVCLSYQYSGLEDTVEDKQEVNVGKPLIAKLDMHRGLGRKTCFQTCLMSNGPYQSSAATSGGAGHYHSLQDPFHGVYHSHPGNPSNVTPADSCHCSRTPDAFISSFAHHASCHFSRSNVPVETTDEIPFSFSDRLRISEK

Take `O=C(Nc1ccnc(C(F)(F)F)c1)c1cnn(-c2ccc(Cl)n3nccc23)c1C(F)(F)F` [Cpd 14, 1-(7-chloropyrazolo[1,5-a]pyridin-4-yl)-5-(trifluoromethyl)-N-(2-(trifluoromethyl)pyridin-4-yl)-1H-pyrazole-4-carboxamide]: the IC50 in assay [1] was 0.501 µM; in assay [2], 0.115 µM; in assay [3], 0.209 µM.

With `N#Cc1ccc(-n2ncc(C(=O)Nc3ccnc(C(F)(F)F)c3)c2C(F)(F)F)c2ccnn12` [Cpd 11, 1-(7-cyanopyrazolo[1,5-a]pyridin-4-yl)-5-(trifluoromethyl)-N-(2-(trifluoromethyl)pyridin-4-yl)-1H-pyrazole-4-carboxamide], the half-inhibitory concentration (IC50) came out at 0.065 µM in assay [1], 0.138 µM in assay [2] and 0.089 µM in assay [3].

For the compound `Cc1coc(-c2ncc(NC(=O)c3cnn(-c4ccc(F)c5nccn45)c3C(F)(F)F)cc2Cl)n1` [Cpd 10, N-(5-chloro-6-(4-methyloxazol-2-yl)pyridin-3-yl)-1-(8-fluoroimidazo[1,2-a]pyridin-5-yl)-5-(trifluoromethyl)-1H-pyrazole-4-carboxamide], the IC50 was determined as 0.023 µM in assay [1], 0.123 µM in assay [2] and 0.026 µM in assay [3].

For `NC(=O)c1ccc(-n2ncc(C(=O)Nc3ccnc(C(F)(F)F)c3)c2C(F)(F)F)c2ccnn12` [Cpd 12, 4-(5-(trifluoromethyl)-4-((2-(trifluoromethyl)pyridin-4-yl)carbamoyl)-1H-pyrazol-1-yl)pyrazolo[1,5-a]pyridine-7-carboxamide], the IC50 in assay [1] was 0.155 µM; in assay [2] it was 0.288 µM; in assay [3], 0.219 µM.

With `O=C(Nc1cnc(-n2cccn2)c(Cl)c1)c1cnn(-c2ccc(F)c3nccn23)c1C(F)(F)F` [Cpd 3, N-(5-chloro-6-(1H-pyrazol-1-yl)pyridin-3-yl)-1-(8-fluoroimidazo[1,2-a]pyridin-5-yl)-5-(trifluoromethyl)-1H-pyrazole-4-carboxamide], the IC50 in assay [1] was determined as 0.114 µM; in assay [2] it was 0.151 µM; in assay [3], 0.251 µM.

As to `O=C(Nc1cnc([C@@H]2CCCO2)c(Cl)c1)c1cnn(-c2ccc(Cl)n3nccc23)c1C(F)(F)F` (single isomer, unassigned) [Cpd 21, (*S)—N-(5-chloro-6-(tetrahydrofuran-2-yl)pyridin-3-yl)-1-(7-chloropyrazolo[1,5-a]pyridin-4-yl)-5-(trifluoromethyl)-1H-pyrazole-4-carboxamide], the IC50 in assay [1] was 0.2 µM; in assay [2], 0.245 µM; in assay [3], 0.087 µM.

In the case of `Cc1ccc(-n2ncc(C(=O)Nc3cnc(-n4nccn4)c(Cl)c3)c2C(F)(F)F)n2ccnc12` [Cpd 7, N-(5-chloro-6-(2H-1,2,3-triazol-2-yl)pyridin-3-yl)-1-(8-methylimidazo[1,2-a]pyridin-5-yl)-5-(trifluoromethyl)-1H-pyrazole-4-carboxamide], the values for the IC50 in assay [1], in assay [2] and in assay [3] were 0.065 µM, 0.219 µM and 0.12 µM, respectively.

As to `O=C(Nc1cnc(-c2ncco2)c(Cl)c1)c1cnn(-c2ccc(F)c3nccn23)c1C(F)(F)F` [Cpd 6, N-(5-chloro-6-(oxazol-2-yl)pyridin-3-yl)-1-(8-fluoroimidazo[1,2-a]pyridin-5-yl)-5-(trifluoromethyl)-1H-pyrazole-4-carboxamide], the figures for the IC50 in assay [1], in assay [2] and in assay [3] were 0.105 µM, 0.257 µM and 0.03 µM, respectively.

`N#Cc1ccc(-n2ncc(C(=O)Nc3cnc([C@@H]4CCCO4)c(Cl)c3)c2C(F)(F)F)c2ccnn12` (single isomer, unassigned) [Cpd 23, (*S)—N-(5-chloro-6-(tetrahydrofuran-2-yl)pyridin-3-yl)-1-(7-cyanopyrazolo[1,5-a]pyridin-4-yl)-5-(trifluoromethyl)-1H-pyrazole-4-carboxamide]: the IC50 was determined as 0.115 µM in assay [1], 0.2 µM in assay [2] and 0.036 µM in assay [3].

Source of the values: patent US10888550B2, “Pyrazole derivatives as MALT1 inhibitors” (Janssen Pharmaceutica NV, priority 2018, dated 2021).
